Data taken from US11396517B1, “Exo-aza spiro inhibitors of menin-MLL interaction” (Janssen Pharmaceutica NV, priority 2017, dated 2022).
Where two headings read alike, the source gives them in different places.

What was measured:
[1] = biological target: T1, menin (Homo sapiens, UniProt O00255, T541A); assay: Menin/MLL homogenous time-resolved fluorescence (HTRF) assay; type: binding
T1 construct: Menin (a.a. 1-610-6×his tag)
T1 sequence (O00255 with tags, fused parts or gaps T541A): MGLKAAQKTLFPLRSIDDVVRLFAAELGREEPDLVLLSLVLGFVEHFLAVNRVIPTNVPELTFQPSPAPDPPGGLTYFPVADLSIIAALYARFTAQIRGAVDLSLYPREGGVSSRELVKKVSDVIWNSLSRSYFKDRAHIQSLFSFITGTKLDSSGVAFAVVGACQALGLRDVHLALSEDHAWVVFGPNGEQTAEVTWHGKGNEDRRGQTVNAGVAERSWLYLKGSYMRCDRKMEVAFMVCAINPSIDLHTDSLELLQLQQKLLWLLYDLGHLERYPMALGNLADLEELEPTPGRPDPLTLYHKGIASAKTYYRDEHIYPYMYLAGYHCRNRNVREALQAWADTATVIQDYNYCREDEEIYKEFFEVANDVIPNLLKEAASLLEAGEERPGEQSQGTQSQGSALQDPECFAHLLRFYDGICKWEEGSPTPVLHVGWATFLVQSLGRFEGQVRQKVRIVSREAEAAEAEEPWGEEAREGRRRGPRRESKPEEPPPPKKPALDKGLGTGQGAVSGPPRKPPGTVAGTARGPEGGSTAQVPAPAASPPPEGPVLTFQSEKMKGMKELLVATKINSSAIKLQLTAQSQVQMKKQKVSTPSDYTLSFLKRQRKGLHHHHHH
Procedure, shortened: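 Displacement of 75 nM FITC-MBM1 from terbium-cryptate-labeled His-tagged menin 1-610 ([…]) was read as the 520/490 nm HTRF ratio. Compound (11-point, 3-fold series) got 5 min with menin before peptide, then 15 min at ambient; 0.5% DMSO, Tris pH 7.5.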

[2] = test system: MOLM14; assay: Proliferation assay B (spheroid assay) MOLM14; type: cell-based, human; details: MOLM14 cells, confluence at day 8, absolute IC50, read-out: (3b) Spheroid assay MOLM14 (IC50(μM)) Assay B
Protocol: 3b) Proliferation Assay B
The anti-proliferative effect of menin/MLL protein/protein interaction inhibitor test compounds was assessed in human leukemia cell lines. The cell lines MV-4-11 and MOLM14 harbor MILL translocations and express the MILL fusion proteins MLL-AF4 and MLL-AF9, respectively, as well as the wildtype protein from the second allele. […] K562 was used as a control cell line containing two MLL wildtype alleles in order to exclude compounds that display general cytotoxic effects.
MV-4-11 and MOLM14 were cultured in RPMI-1640 (Sigma Aldrich) supplemented with 10% fetal bovine serum (HyClone), 2 mM L-glutamine (Sigma Aldrich) and 50 μg/ml gentamycin (Gibco). K562 were propagated in RPMI-1640 (Sigma Aldrich) supplemented with 20% fetal bovine serum (HyClone), 2 mM L-glutamine (Sigma Aldrich) and 50 μg/ml gentamycin (Gibco).
In order to assess the anti-proliferative effects, 1,500 MV-4-11, 300 MOLM14 cells or 750 K562 cells were seeded in 200 μl media per well in 96-well round bottom, ultra-low attachment plates (Costar, catalogue number 7007). Cell seeding numbers were chosen based on growth curves to ensure linear growth throughout the experiment. Test compounds were added at different concentrations and the DMSO content was normalized to 0.3%. Cells were incubated for 8 d at 37° C. and 5% CO2. Spheroid like growth was measured in real-time by live-cell imaging (IncuCyteZOOM, Essenbio, 4× objective) acquiring images at day 8. Confluence (%) as a measure of spheroid size was determined using an integrated analysis tool.
In order to determine the effect of the test compounds over time, the confluence in each well as a measure of spheroid size, was calculated. Confluence […] at the beginning of the experiment (t=0) was used as baseline for the calculation.
Absolute IC50 values were calculated as percent change in confluence as follows:
LC=Low Control: cells treated with 1 μM of the cytotoxic agent staurosporin
HC=High Control: Mean confluence (%) (DMSO treated cells) % Effect=100−(100*(Sample−LC)/(HC−LC))
To determine the IC50 a curve is fitted to the plot of % Effect vs Log 10 compound concentration using a sigmoidal fit with a variable slope and fixing the maximum to 100% and the minimum to 0%.

[3] = location 2, read-out: (2) location 2 Menin HTRF assay (IC50 (nM))

Row | SMILES | IC50 [1, 3] [nM] | IC50 ([2]; Homo sapiens, MOLM-14, 192 h) [µM] | IC50 ([1]; location 1, read-out: (2) location 1 Menin HTRF assay (IC50 (nM))) [nM] | IC50 [2] [µM]
1 | CN1CCC(c2cc(NC3CC4(CCN(c5ncnc6sc(CC(F)(F)F)cc56)C4)C3)ccc2C(=O)N2CCOCC2)CC1 (single isomer, unassigned) [Compound 232] | 667 | > 3.75 | – | –
2 | N#CCc1ccc(NC2CC3(CCN(c4nc(N)nc5sc(CC(F)(F)F)cc45)C3)C2)cc1 (single isomer, unassigned) [Compound 379] | 1.4 | > 3.75 | – | –
3 | O=C(c1cnc(NC2CC3(CCN(c4ncnc5sc(CC(F)(F)F)cc45)C3)C2)nc1)N1CCOCC1 (single isomer, unassigned) [Compound 258] | 108 | > 3.75 | – | –
4 | O=C(c1ccc(NC2CC3(CCN(c4ncnc5sc(CC(F)(F)F)cc45)C3)C2)c(F)c1)N1CCOCC1 (single isomer, unassigned) [Compound 352] | 139 | – | – | > 3.75
5 | Cn1c(=O)[nH]c2cc(NC3CC4(CCN(c5ncnc6sc(CC(F)(F)F)cc56)C4)C3)ccc21 (single isomer, unassigned) [Compound 90] | 20.2 | 0.85 | – | –
6 | CNC(=O)c1ccc(NC2CC3(CCN(c4ncnc5sc(CC(F)(F)F)cc45)C3)C2)cn1 (single isomer, unassigned) [Compound 218] | 64.9 | – | – | > 3.75
7 | CS(=O)(=O)N[C@H]1CC[C@@H](NC2CC3(CCN(c4ncnc5sc(CC(F)(F)F)cc45)C3)C2)CC1 (stereo partly drawn) [Compound 272] | 18 | – | – | 2.56
8 | CC1CN(C(=O)c2ccc(NC3CC4(CCN(c5ncnc6sc(CC(F)(F)F)cc56)C4)C3)cc2)CC(C)O1 (single isomer, unassigned) [Compound 406] | 36 | – | – | > 3.75
9 | CN(C)CCNC(=O)c1ccc(NC2CC3(CCN(c4ncnc5sc(CC(F)(F)F)cc45)C3)C2)c(F)c1 (single isomer, unassigned) [Compound 243] | 2.9 | – | – | 1.11
10 | O=C(NCCN1CCOCC1)c1ccc(NC2CC3(CCN(c4ncnc5sc(CC(F)(F)F)cc45)C3)C2)cc1 (stereo not drawn) [Compound 87] | 191 | > 3.75 | – | –
11 | O=C1OCCN1Cc1ccc(NC2CC3(CCN(c4ncnc5sc(CC(F)(F)F)cc45)C3)C2)cc1 (mixture of isomers) [Compound 347] | 9.1 | 3.18 | – | –
12 | O=C(NCCN1CCOCC1)c1ccc(NC2CC3(CCN(c4ncnc5sc(CC(F)(F)F)cc45)C3)C2)cc1 (single isomer, unassigned) [Compound 88] | 3.8 | 0.99 | – | –
13 | CNC(=O)c1ccc(NC2CC3(CCN(c4ncnc5sc(CC(F)(F)F)cc45)C3)C2)cc1Cl (mixture of isomers) [Compound 214] | 9.4 | > 3.75 | – | –
14 | CS(=O)(=O)N1CCN(CCNC(=O)c2ccc(NC3CC4(CCN(c5ncnc6sc(CC(F)(F)F)cc56)C4)C3)cc2)CC1 (single isomer, unassigned) [Compound 190] | 9.2 | – | – | 2.1
15 | O=S(=O)(c1ccc(NC2CC3(CCN(c4ncnc5sc(CC(F)(F)F)cc45)C3)C2)cc1)N1CCOCC1 (single isomer, unassigned) [Compound 219] | 2.6 | 2.4 | – | –
16 | CNC(=O)c1cc(F)c(NC2CC3(CCN(c4ncnc5sc(CC(F)(F)F)cc45)C3)C2)c(F)c1 (single isomer, unassigned) [Compound 228] | 84.2 | – | – | > 3.75
17 | CS(=O)(=O)N1CC(CC(C#N)c2ccc(NC3CC4(CCN(c5ncnc6sc(CC(F)(F)F)cc56)C4)C3)cc2)C1 (stereo not drawn) [Compound 339] | 5.1 | 2.41 | – | –
18 | O=C1OCCN1c1ccc(NC2CC3(CCN(c4ncnc5sc(CC(F)(F)F)cc45)C3)C2)cc1 (mixture of isomers) [Compound 345] | 6.8 | 2.33 | – | –

Continued by falling IC50 [1, 3], values first:

Row | IC50 [1, 3] [nM] | IC50 ([2]; Homo sapiens, MOLM-14, 192 h) [µM] | IC50 ([1]; location 1, read-out: (2) location 1 Menin HTRF assay (IC50 (nM))) [nM] | IC50 [2] [µM] | SMILES
19 | 3380 | > 3.75 | – | – | O=C(c1ccc(NC2CC3(CCN(c4ncnc5sc(CC(F)(F)F)cc45)C3)C2)nn1)N1CCOCC1 (single isomer, unassigned) [Compound 420]
20 | 1580 | > 3.75 | – | – | O=C(c1ccc(NC2CC3(CCN(c4ncnc5sc(CC(F)(F)F)cc45)C3)C2)cc1)N1CCNCC1 (single isomer, unassigned) [Compound 187]
21 | 409 | > 3.75 | – | – | CNC(=O)c1ccc(N[C@@H]2CC[C@]3(CCN(c4ncnc5sc(CC(F)(F)F)cc45)C3)C2)cc1 (stereo in doubt) [Compound 136]
22 | 146 | > 3.75 | – | – | CNc1nc(N2CCC3(CC(Nc4ccc5c(c4)oc(=O)n5CCN4CCN(S(C)(=O)=O)CC4)C3)C2)c2cc(CC(F)(F)F)sc2n1 (mixture of isomers) [Compound 250]
23 | 80.2 | – | – | > 3.75 | CNC(=O)c1ccc(NC2CC3(CCN(c4ncnc5sc(CC(F)(F)F)cc45)C3)C2)c(F)c1F (single isomer, unassigned) [Compound 227]
24 | 43.7 | > 3.75 | – | – | CS(=O)(=O)N1CCN(CC(O)c2ccc(NC3CC4(CCN(c5ncnc6sc(CC(F)(F)F)cc56)C4)C3)cc2)CC1 (stereo not drawn) [Compound 354]
25 | 18.7 | 1.55 | – | – | N#Cc1ccc(NC2CC3(CCN(c4ncnc5sc(CC(F)(F)F)cc45)C3)C2)cn1 (mixture of isomers) [Compound 176]
26 | 17.3 | > 3.75 | – | – | O=C(c1ccc(NC2CC3(CCN(c4ncnc5sc(CC(F)(F)F)cc45)C3)C2)c(F)c1)N1CCOCC1 (single isomer, unassigned) [Compound 353]
27 | 16.4 | – | – | > 3.75 | COC[C@H]1COCCN1C(=O)c1ccc(NC2CC3(CCN(c4ncnc5sc(CC(F)(F)F)cc45)C3)C2)cc1 (single isomer, unassigned) [Compound 408]
28 | 16.2 | – | – | > 3.75 | CNc1nc(N2CCC3(CC(Nc4ccc5oc(=O)[nH]c5c4)C3)C2)c2cc(CC(F)(F)F)sc2n1 (single isomer, unassigned) [Compound 398]
29 | 15.5 | 3.51 | – | – | CS(=O)(=O)N1CCN(Cc2ccc(NC3CC4(CCN(c5ncnc6sc(CC(F)(F)F)cc56)C4)C3)cc2)CC1 (mixture of isomers) [Compound 351]
30 | 10.6 | > 3.75 | – | – | CNC(=O)c1cnc(NC2CC3(CCN(c4ncnc5sc(CC(F)(F)F)cc45)C3)C2)nc1 (mixture of isomers) [Compound 257]
31 | 9.4 | > 3.75 | – | – | Nc1nc(N2CCC3(CC(Nc4ccc5[nH]c(=O)[nH]c5c4)C3)C2)c2cc(CC(F)(F)F)sc2n1 (mixture of isomers) [Compound 381]
32 | 7.7 | > 3.75 | – | – | CNC(=O)c1c(F)cc(NC2CC3(CCN(c4ncnc5sc(CC(F)(F)F)cc45)C3)C2)cc1F (single isomer, unassigned) [Compound 245]
33 | 4.1 | – | – | 1.53 | CC(C#N)(C#N)c1ccc(NC2CC3(CCN(c4ncnc5sc(CC(F)(F)F)cc45)C3)C2)cc1 (single isomer, unassigned) [Compound 235]
34 | 1.3 | – | 0.8 | 1.1 | CN(C(=O)c1ccc(NC2CC3(CCN(c4ncnc5sc(CC(F)(F)F)cc45)C3)C2)cc1)S(C)(=O)=O (single isomer, unassigned) [Compound 364]
